Measurements from US11446262B2, “Neuroquiescence—a treatment for neurodevelopmental and neurodegenerative bioelectrical dysregulation and demyelination” (priority 2018, dated 2022).
“Also recorded” adds a separate entry of the source.

How the values were obtained:
[1] = tested on: patients (allergic reaction); test: Anesthesia allergy test before the Neuroquiescence session
[2] = tested on: seizure and Grand mal seizure; test: Midazolam IV for termination of seizure; assay type: in vivo, human; conditions: IV 0.2 mg/kg (Maximum 10 mg)
[3] = Absorption of Midazolam administered by IV
[4] = tested on: children with seizures and agitated bioelectrical brain activity; set-up: species or system human; conditions: in vivo
[5] = tested on: patients with seizures (Epilepsy); test: Use of Dobutamine in seizure patients before the sedation session (adults); assay type: in vivo, human
Excerpt: We alternate weeks between the Neurokinin-2 (Nk2) versus the Dobutamine Infusion (Dob). We are limited to four doses of Neurokinin 2, so we distribute them among the Dobutamine doses to maximize the Neurokinin-2 counterinflammation. We use no Dobutamine on the day before or after the day of Neurokinin-2.
The traditional “intractable” Epilepsy concept is overcome by use of Dobutamine, which is about cerebrovascular bloodflow, not about suppression of seizures. Dobutamine outperforms antiseizure medications because it addresses the true root-cause of seizures.

[6] = tested on: children with Epilepsy (seizures, neuronal agitation noise on EEG); test: Neuroquiescence protocol (Dobutamine preparation plus sustained sedation) in children with Epilepsy, hospital case series; assay type: in vivo, human

In the case of `Cc1ncc2n1-c1ccc(Cl)cc1C(c1ccccc1F)=NC2` [Midazolam], the “patients allergic in allergy test” value [1] is reported as “approximately 5%”, the “termination of frequency of seizure and Grand mal seizure” value [2] is reported as “effective” and the absorption [3] is reported as “well absorbed”. For the same molecule, the “EEG monitoring and Brainscans” value [4] was “became normal”, the “symptoms of seizures and agitated bioelectrical brain activity” value [4] was “resolved” and the “symptoms of seizures and bioelectrical brain activity after Neuroquiescence” value [4] was “partial improvement; also recorded: resolved”.
For `CC(CCc1ccc(O)cc1)NCCc1ccc(O)c(O)c1` (stereo not drawn) [Dobutamine], the “seizure status of adults previously taking multiple antiseizure medications” value ([5]; intravenous Dobutamine, before sedation session) was “become seizure free”, the “performance versus antiseizure medication” value ([5]; neuronal agitation still present during weeks of microvascular preparation) was “consistently outperformed their antiseizure medication” and the time to seizure-free ([5]; one adult with unmanageable morning seizures for fifteen years) was “seizure-free in less than one month”. For the same molecule, the “neuronal agitation on EEG” value ([5]; same adult, a few more months, all antiseizure medications removed) was “no neuronal agitation measurable at EEG sensitivities”, the “children having no neuronal agitation noise, never returns” value ([6]; after week-six Neuroquiescence sedation session, Dobutamine continued) was “over 95%” and the “children with no seizures but neuronal agitation noise still present” value ([6]; weeks two through five, Pre-Neuroquiescence preparation on Dobutamine, no antiseizure medication) was “about 80%”.
